Where two headings read alike, the source gives them in different places.
Tested on: compound-treated mice
Assay: Neuropharmacological assay (SmartCube): behavioral activity signature and minimal effective dose
Type: in vivo
Conditions: for minimal effective dose: Mus musculus, ip, MED = dose having 50% or more total activity; for AD: ADHD (probability of activity signature) / AG: analgesic (probability of activity signature) / AX: anxiolytic (probability of activity signature) / CE: cognitive enhancer (probability of activity signature) / DP: anti-depressant (probability of activity signature) / MS: mood stabilizer (probability of activity signature) / PS: anti-psychotic (probability of activity signature) / SD: sedative hypnotic (probability of activity signature) / UN: uncharacterized CNS activity (probability of activity signature): i.p. 15 min before test, most efficacious dose(s)
Text: Neurosci. 2011 Sep. 9; 5:103 (doi: 10.3389/fnins.2011.00103) (“Roberds”). As reported in Roberds, because psychiatric diseases generally result from disorders of cell-cell communication or circuitry, intact systems are useful in detecting improvement in disease-relevant endpoints. These endpoints are typically behavioral in nature, often requiring human observation and interpretation. To facilitate testing of multiple compounds for behavioral effects relevant to psychiatric disease, PsychoGenics, Inc. (Tarrytown, N.Y., “PGI”) developed SmartCube™, an automated system in which behaviors of compound-treated mice are captured by digital video and analyzed with computer algorithms. (D. Brunner et al., Drug Discov. Today 2002, 7:S107-S112). PGI Analytical Systems uses data from SmartCube™ to compare the behavioral signature of a test compound to a database of behavioral signatures obtained using a large set of diverse reference compounds. (The composition of the database as well as validation of the method is further described in Roberds). In this way, the neuropharmacological effects of a test compound can be predicted by similarity to major classes of compounds, such as antipsychotics, anxiolytics and antidepressants.
The SmartCube™ system produces an activity signature indicating the probability that the activity of the test compound at the administered dose matches a given class of neuropharmacological agents. (See, e.g., Roberds, FIGS. 2 and 3). The test compound is simultaneously compared against multiple classes of agents; thus, a separate probability is generated for each behavioral effect measured (e.g., anxiolytic activity, analgesic activity, etc.). In the table below, these probabilities are reported for each behavioral effect measured as follows:
where LOQ is the limit of quantification.
Provided compounds were dissolved in a mixture of Pharmasolve™ (N-methyl-2-pyrrolidone), polyethylene glycol and propylene glycol, and were injected i.p. 15 min. before the behavioral test. For each compound, injections were administered at 3 different doses. For each behavioral effect measured, results for the most efficacious dose(s) are presented. In the table below, DP: anti-depressant; AX: anxiolytic; SD: sedative hypnotic; PS: anti-psychotic; MS: mood stabilizer; AD: ADHD; CE: cognitive enhancer; AG: analgesic; UN: uncharacterized CNS activity.
The potency of many of the compounds in the table was also determined in the SmartCube™ system. Test compounds were routinely examined at dose levels of 0.3, 1, 3, 10 and 30 mg per kg (mpk), although the dose range was increased or decreased if necessary to obtain a full dose response curve. A compound's minimal effective dose (MED) is a measure of the compounds potency. The MED was defined as the dose (in mpk) having 50% or more total activity in SmartCube.

[1] = read-out: Potency: minimal effective dose (MED)
[2] = read-out: Potency: minimal effective dose (MED), binned

SMILES | minimal effective dose [1] | AD: ADHD (probability of activity signature) | AG: analgesic (probability of activity signature) | AX: anxiolytic (probability of activity signature) | CE: cognitive enhancer (probability of activity signature) | DP: anti-depressant (probability of activity signature) | MS: mood stabilizer (probability of activity signature) | PS: anti-psychotic (probability of activity signature) | SD: sedative hypnotic (probability of activity signature) | UN: uncharacterized CNS activity (probability of activity signature) | minimal effective dose [2]
CCNC1COCc2ccc(C)c(C)c21.Cl (stereo not shown) [Example 58] | 3 to 10 mg/kg | + (LOQ ≤ + <5%) | ++ (5% ≤ ++ <25%) | ++ (5% ≤ ++ <25%) | ++ (5% ≤ ++ <25%) | ++ (5% ≤ ++ <25%) | + (LOQ ≤ + <5%) | ++ (5% ≤ ++ <25%) | ++ (5% ≤ ++ <25%) | +++ (25% ≤ +++ <50%) | –
CN[C@H]1COCc2ccc(Cl)c(Cl)c21 [Example 148] | 3 to 10 mg/kg | + (LOQ ≤ + <5%) | ++ (5% ≤ ++ <25%) | ++ (5% ≤ ++ <25%) | ++ (5% ≤ ++ <25%) | ++ (5% ≤ ++ <25%) | ++ (5% ≤ ++ <25%) | ++ (5% ≤ ++ <25%) | ++ (5% ≤ ++ <25%) | +++ (25% ≤ +++ <50%) | –
Cc1cccc2c1[C@H](C)OC[C@@H]2N [Example 255] | – | + (LOQ ≤ + <5%) | + (LOQ ≤ + <5%) | + (LOQ ≤ + <5%) | + (LOQ ≤ + <5%) | + (LOQ ≤ + <5%) | + (LOQ ≤ + <5%) | + (LOQ ≤ + <5%) | ++ (5% ≤ ++ <25%) | ++ (5% ≤ ++ <25%) | 10 to 30 mg/kg
CC[C@@H]1OCc2ccc(F)cc2[C@@H]1N.Cl [Example 201] | – | + (LOQ ≤ + <5%) | + (LOQ ≤ + <5%) | ++ (5% ≤ ++ <25%) | ++ (5% ≤ ++ <25%) | + (LOQ ≤ + <5%) | + (LOQ ≤ + <5%) | ++ (5% ≤ ++ <25%) | + (LOQ ≤ + <5%) | ++++ (50% ≤ ++++) | 3 to 10 mg/kg
CCc1ccc2c(c1)[C@H](N)[C@@H](C)OC2.Cl [Example 220] | – | + (LOQ ≤ + <5%) | ++ (5% ≤ ++ <25%) | ++++ (50% ≤ ++++) | ++ (5% ≤ ++ <25%) | + (LOQ ≤ + <5%) | + (LOQ ≤ + <5%) | + (LOQ ≤ + <5%) | + (LOQ ≤ + <5%) | ++++ (50% ≤ ++++) | 3 to 10 mg/kg
Cl.NC1COCc2ccc3ccccc3c21 (stereo not shown) [Example 13] | 3 to 10 mg/kg | + (LOQ ≤ + <5%) | ++ (5% ≤ ++ <25%) | ++ (5% ≤ ++ <25%) | ++ (5% ≤ ++ <25%) | ++ (5% ≤ ++ <25%) | + (LOQ ≤ + <5%) | ++ (5% ≤ ++ <25%) | + (LOQ ≤ + <5%) | ++++ (50% ≤ ++++) | –
CN[C@H]1COCc2ccc(C)c(C)c21 [Example 144] | 3 to 10 mg/kg | + (LOQ ≤ + <5%) | ++ (5% ≤ ++ <25%) | ++ (5% ≤ ++ <25%) | ++ (5% ≤ ++ <25%) | ++ (5% ≤ ++ <25%) | + (LOQ ≤ + <5%) | ++ (5% ≤ ++ <25%) | ++ (5% ≤ ++ <25%) | +++ (25% ≤ +++ <50%) | –
N[C@@H]1COCc2ccc(F)cc21 (single isomer, unassigned) [Example 113] | 3 to 10 mg/kg | + (LOQ ≤ + <5%) | ++ (5% ≤ ++ <25%) | ++ (5% ≤ ++ <25%) | ++ (5% ≤ ++ <25%) | ++ (5% ≤ ++ <25%) | + (LOQ ≤ + <5%) | ++ (5% ≤ ++ <25%) | + (LOQ ≤ + <5%) | +++ (25% ≤ +++ <50%) | –
CC[C@@H]1OCc2ccc(C)cc2[C@@H]1N (single isomer, unassigned) [Example 179] | – | + (LOQ ≤ + <5%) | + (LOQ ≤ + <5%) | ++ (5% ≤ ++ <25%) | ++ (5% ≤ ++ <25%) | +++ (25% ≤ +++ <50%) | + (LOQ ≤ + <5%) | ++ (5% ≤ ++ <25%) | + (LOQ ≤ + <5%) | ++++ (50% ≤ ++++) | < 3 mg/kg
Cc1ccc2c(c1)CO[C@H](C)[C@H]2N.Cl [Example 96] | < 3 mg/kg | + (LOQ ≤ + <5%) | ++ (5% ≤ ++ <25%) | +++ (25% ≤ +++ <50%) | ++ (5% ≤ ++ <25%) | ++ (5% ≤ ++ <25%) | + (LOQ ≤ + <5%) | ++ (5% ≤ ++ <25%) | + (LOQ ≤ + <5%) | +++ (25% ≤ +++ <50%) | –
Cl.NC1COCc2ccc(Cl)cc21 (stereo not shown) [Example 1, 6-Chloroisochroman-4-amine hydrochloride] | 10 to 30 mg/kg | + (LOQ ≤ + <5%) | ++ (5% ≤ ++ <25%) | ++ (5% ≤ ++ <25%) | ++ (5% ≤ ++ <25%) | + (LOQ ≤ + <5%) | + (LOQ ≤ + <5%) | ++ (5% ≤ ++ <25%) | ++ (5% ≤ ++ <25%) | ++ (5% ≤ ++ <25%) | –
C[C@@H]1OCc2cc(Cl)ccc2[C@@H]1N.Cl [Example 93] | 10 to 30 mg/kg | + (LOQ ≤ + <5%) | ++ (5% ≤ ++ <25%) | +++ (25% ≤ +++ <50%) | + (LOQ ≤ + <5%) | ++ (5% ≤ ++ <25%) | + (LOQ ≤ + <5%) | ++ (5% ≤ ++ <25%) | + (LOQ ≤ + <5%) | + (LOQ ≤ + <5%) | –
COc1ccc2c(c1)[C@H](N)[C@@H](C)OC2.Cl [Example 85] | 3 to 10 mg/kg | + (LOQ ≤ + <5%) | +++ (25% ≤ +++ <50%) | ++ (5% ≤ ++ <25%) | ++ (5% ≤ ++ <25%) | ++ (5% ≤ ++ <25%) | + (LOQ ≤ + <5%) | + (LOQ ≤ + <5%) | + (LOQ ≤ + <5%) | +++ (25% ≤ +++ <50%) | –
